Source: ChEMBL document CHEMBL5247622, “Structural optimization of Imidazo[1, 2-a]pyridine derivatives for the treatment of gastric cancer via STAT3 signaling pathway” (Eur J Med Chem, 2022)
The source made the active and inactive calls. The rule behind the calls is not given here.

What was measured:
[1] = target: Signal transducer and activator of transcription 3 (Homo sapiens) (UniProt P40763); experiment: Inhibition of STAT3 in human AGS cells assessed as reduction of Mcl-1 protein expression level at 0.3 to 3 uM by western blot assay; assay type: cell-based; settings: dose 0.3-3 µM
[2] = tested on: AGS; experiment: Inhibition of cell migration in human AGS cells at 0.03 to 0.3 uM incubated for 48 hrs by wound healing assay based microscopic analysis; assay type: functional; settings: dose 0.03-0.3 µM
[3] = tested on: AGS; experiment: Induction of apoptosis in human AGS cells assessed as early apoptotic cells at 0.3 uM incubated for 48 hrs by Annexin V-FITC/PI staining based flow cytometry method (reference value: 2.38 %); assay type: functional
[4] = tested on: AGS; experiment: Inhibition of colony formation in human AGS cells at 0.3 to 3 uM incubated for 10 to 15 days by crystal violet staining based assay; assay type: functional, cell-based; settings: dose 0.3-3 µM, time 10-15 day
[5] = tested on: AGS; experiment: Induction of apoptosis in human AGS cells assessed as viable cells at 1 uM incubated for 48 hrs by Annexin V-FITC/PI staining based flow cytometry method (reference value: 94.8 %); assay type: functional; settings: read-out: Activity
[6] = tested on: AGS; experiment: Induction of apoptosis in human AGS cells assessed as early apoptotic cells at 1 uM incubated for 48 hrs by Annexin V-FITC/PI staining based flow cytometry method (reference value: 2.38 %); assay type: functional
[7] = target: Signal transducer and activator of transcription 3 (Homo sapiens) (UniProt P40763); experiment: Inhibition of STAT3 in human AGS cells assessed as reduction of c-Myc protein expression level at 0.3 to 3 uM by western blot assay; assay type: cell-based; settings: dose 0.3-3 µM
[8] = target: Signal transducer and activator of transcription 3 (Homo sapiens) (UniProt P40763); experiment: Inhibition of HA-tagged STAT3 (unknown origin) dimerization transfected in HEK293T cells at 0.3 to 3 uM incubated for 24 hrs followed by IL-6 stimulation and measured after 1 hr by immunoprecipitation assay; assay type: cell-based; settings: dose 0.3-3 µM, time 25.0 hrs
[9] = tested on: MGC-803; experiment: Antitumor activity against human MGC-803 cells xenografted in BALB/c mouse assessed as tumor growth inhibition at 15 mg/kg,ip administrated for 21 consecutive days relative to control; assay type: functional; settings: read-out: TGI
[10] = Toxicity in BALB/c mouse xenografted with human MGC-803 cells assessed as morphological change in heart at 5 mg/kg,ip administrated for 21 consecutive days by hematoxylin and eosin staining method; assay type: organism-based; settings: in vivo
[11] = target: Signal transducer and activator of transcription 3 (Homo sapiens) (UniProt P40763); experiment: In vivo inhibition of STAT3 in BALB/c mouse xenografted with human MGC-803 cells assessed as reduction of c-Myc expression in tumor at 15 mg/kg,ip administrated for 21 consecutive days by immunohistochemistry analysis; assay type: functional, organism-based
[12] = target: Signal transducer and activator of transcription 3 (Homo sapiens) (UniProt P40763); experiment: Inhibition of STAT3 in human AGS cells assessed as inhibition of STAT3 phosphorylation level at Tyr705 at 0.3 to 3 uM by western blot assay; assay type: cell-based; settings: dose 0.3-3 µM
[13] = tested on: AGS; experiment: Induction of apoptosis in human AGS cells assessed as early apoptotic cells at 3 uM incubated for 48 hrs by Annexin V-FITC/PI staining based flow cytometry method (reference value: 2.38 %); assay type: functional
[14] = target: Signal transducer and activator of transcription 3 (Homo sapiens) (UniProt P40763); experiment: In vivo inhibition of STAT3 in BALB/c mouse xenografted with human MGC-803 cells assessed as reduction of STAT3 phosphorylation level at Tyr705 in tumor at 15 mg/kg,ip administrated for 21 consecutive days by immunohistochemistry analysis; assay type: functional, organism-based
[15] = target: Signal transducer and activator of transcription 3 (Homo sapiens) (UniProt P40763); experiment: In vivo inhibition of STAT3 in BALB/c mouse xenografted with human MGC-803 cells assessed as reduction of c-Myc expression in tumor at 5 mg/kg,ip administrated for 21 consecutive days by immunohistochemistry analysis; assay type: functional, organism-based
[16] = target: T1, Signal transducer and activator of transcription 1-alpha/beta (Homo sapiens) (UniProt P42224); experiment: Inhibition of STAT1 in human AGS cells assessed as inhibition of STAT1 phosphorylation level at Tyr701 at 0.3 to 3 uM by western blot assay; assay type: cell-based; settings: dose 0.3-3 µM
T1 sequence (whole entry): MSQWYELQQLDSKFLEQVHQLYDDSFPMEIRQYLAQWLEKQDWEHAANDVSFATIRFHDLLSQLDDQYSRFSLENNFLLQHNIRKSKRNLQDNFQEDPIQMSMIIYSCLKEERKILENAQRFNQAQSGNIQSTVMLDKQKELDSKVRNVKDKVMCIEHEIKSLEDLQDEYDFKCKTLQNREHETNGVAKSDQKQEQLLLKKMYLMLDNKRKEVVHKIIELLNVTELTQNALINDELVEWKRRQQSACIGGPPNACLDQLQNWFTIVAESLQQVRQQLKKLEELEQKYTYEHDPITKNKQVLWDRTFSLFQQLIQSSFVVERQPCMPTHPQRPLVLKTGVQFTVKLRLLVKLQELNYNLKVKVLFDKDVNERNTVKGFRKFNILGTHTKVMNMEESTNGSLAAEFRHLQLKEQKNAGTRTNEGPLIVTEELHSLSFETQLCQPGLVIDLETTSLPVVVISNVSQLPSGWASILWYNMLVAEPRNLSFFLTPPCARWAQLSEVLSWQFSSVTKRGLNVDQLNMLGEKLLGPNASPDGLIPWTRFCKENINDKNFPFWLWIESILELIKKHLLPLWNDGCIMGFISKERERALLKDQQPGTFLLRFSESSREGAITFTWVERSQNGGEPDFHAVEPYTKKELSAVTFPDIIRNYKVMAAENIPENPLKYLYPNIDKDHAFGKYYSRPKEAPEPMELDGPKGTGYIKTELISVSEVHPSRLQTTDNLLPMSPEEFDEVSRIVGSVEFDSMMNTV

[17] = tested on: AGS; experiment: Induction of apoptosis in human AGS cells assessed as late apoptotic cells at 0.3 uM incubated for 48 hrs by Annexin V-FITC/PI staining based flow cytometry method (reference value: 2.46 %); assay type: functional
[18] = target: Signal transducer and activator of transcription 3 (Homo sapiens) (UniProt P40763); experiment: In vivo inhibition of STAT3 in BALB/c mouse xenografted with human MGC-803 cells assessed as reduction of Mcl-1 expression in tumor at 5 mg/kg,ip administrated for 21 consecutive days by immunohistochemistry analysis; assay type: functional, organism-based
[19] = tested on: MGC-803; experiment: Inhibition of colony formation in human MGC-803 cells at 0.3 to 3 uM incubated for 10 to 15 days by crystal violet staining based assay; assay type: functional, cell-based; settings: dose 0.3-3 µM, time 10-15 day
[20] = Toxicity in BALB/c mouse xenografted with human MGC-803 cells assessed as body weight loss at 15 mg/kg,ip administrated for 21 consecutive days; assay type: organism-based; settings: in vivo
[21] = Toxicity in BALB/c mouse xenografted with human MGC-803 cells assessed as body weight loss at 5 mg/kg,ip administrated for 21 consecutive days; assay type: organism-based; settings: in vivo
[22] = target: Signal transducer and activator of transcription 3 (Homo sapiens) (UniProt P40763); experiment: Thermal stabilization of STAT3 in human AGS cells at 1 uM at 37 to 54 degreeC incubated for 1 hr by cellular thermal shift assay; assay type: cell-based

Chain of Signal transducer and activator of transcription 3 (Homo sapiens) (P40763 whole entry): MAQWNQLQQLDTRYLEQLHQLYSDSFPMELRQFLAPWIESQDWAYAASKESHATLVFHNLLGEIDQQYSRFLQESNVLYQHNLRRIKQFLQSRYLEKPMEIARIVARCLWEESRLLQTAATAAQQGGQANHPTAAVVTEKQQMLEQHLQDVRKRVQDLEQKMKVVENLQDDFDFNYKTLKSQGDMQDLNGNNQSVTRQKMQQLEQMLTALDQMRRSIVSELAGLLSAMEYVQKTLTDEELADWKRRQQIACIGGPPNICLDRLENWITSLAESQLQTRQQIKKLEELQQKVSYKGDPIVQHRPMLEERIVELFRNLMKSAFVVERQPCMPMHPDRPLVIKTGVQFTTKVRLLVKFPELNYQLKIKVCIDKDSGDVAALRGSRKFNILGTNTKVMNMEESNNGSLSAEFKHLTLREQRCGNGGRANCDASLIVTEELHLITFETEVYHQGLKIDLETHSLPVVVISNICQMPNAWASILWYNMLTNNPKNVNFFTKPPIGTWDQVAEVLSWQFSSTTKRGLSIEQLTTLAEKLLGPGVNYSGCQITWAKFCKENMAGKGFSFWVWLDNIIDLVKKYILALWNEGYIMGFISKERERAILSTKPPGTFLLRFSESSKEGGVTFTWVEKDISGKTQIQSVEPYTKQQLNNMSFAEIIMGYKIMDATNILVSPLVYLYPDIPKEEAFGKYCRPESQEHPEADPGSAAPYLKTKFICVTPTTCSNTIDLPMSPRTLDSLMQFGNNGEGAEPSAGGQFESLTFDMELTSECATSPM

Cc1cc(NC(=O)c2ccc([N+](=O)[O-])o2)ccc1-c1cnc2ccccn12
inhibition [1]: Active | inhibition [2]: Dose-Dependent Effect | Activity [3]: 2.49% | inhibition [4]: Dose-Dependent Effect | viability at 1 µM [5]: 92.1% | Activity [6]: 4.52% | inhibition [7]: Active | inhibition [8]: Dose-Dependent Effect | inhibition in vivo at 15 mg/kg [9]: 73.4% | Activity [10]: Non-Toxic | inhibition [11]: Active | inhibition [12]: Dose-Dependent Effect | Activity [13]: 12.1% | inhibition [14]: Active | inhibition [15]: Active | inhibition [16]: inactive | Activity [17]: 3.15% | inhibition [18]: Active | inhibition [19]: Dose-Dependent Effect | Activity [20]: Non-Toxic | Activity [21]: Non-Toxic | Activity [22]: Active
